This test addresses MAPK14 (murine). Nature of the test: Inhibition of MAPK14 Kinase Activity.

Structures are written as SMILES.

`COc1ccc(CCC(C)(C)N)cc1C(=O)c1ccc(Nc2ccc(F)cc2F)cc1`: the IC50 was found to be 113 nM.
Compound `COc1ccccc1C(=O)c1ccc(Nc2ccc(F)cc2F)cc1` yielded an IC50 of 38 nM.
To `O=C(c1ccc(Nc2ccc(F)cc2F)cc1)c1ccccc1Cl` belongs 11 nM; to `COc1ccc(/C=C/C2(O)CCN(C)CC2)cc1C(=O)c1ccc(Nc2ccc(F)cc2F)cc1`, 1 nM; to `COc1ccc(CCC(C)(C)O)cc1C(=O)c1ccc(Nc2ccc(F)cc2F)nc1`, 479 nM.
Regarding `COc1ccc(C#CC(C)(C)O)cc1C(=O)c1ccc(Nc2ccc(F)cc2F)nc1`, the concentration for half-maximal inhibition (IC50) stood at 54 nM.
Regarding `CC(C)(N)C#Cc1ccc(Cl)c(C(=O)c2ccc(Nc3ccc(F)cc3F)nc2)c1`, the half-inhibitory concentration (IC50) came out at 19 nM.
Consider `COc1cc2nc(C)[nH]c2cc1C(=O)c1ccc(Nc2ccc(F)cc2F)nc1`, for which the IC50 amounted to 21 nM.
For `Cc1nc2cc(Cl)c(C(=O)c3ccc(Nc4ccc(F)cc4F)cc3)cc2[nH]1` the value was 0.7 nM; for `O=C(c1ccc(Nc2ccc(F)cc2F)nc1)c1ccccc1Cl`, 101 nM.
Compound `Cc1nc2cc(Cl)c(C(=O)c3ccc(Nc4ccc(F)cc4F)nc3)cc2[nH]1` showed an IC50 of 8 nM.
In turn, `COc1ccc(C#CC(C)(C)N)cc1C(=O)c1ccc(Nc2ccc(F)cc2F)nc1` had a half-maximal inhibitory concentration (IC50) of 8 nM.
`COc1ccc(C#CC(C)(C)N)cc1C(=O)c1ccc(Nc2ccc(F)cc2F)cc1` displayed an IC50 of 14 nM.
To `CC(C)(N)C#Cc1ccc(Cl)c(C(=O)c2ccc(Nc3ccc(F)cc3F)cc2)c1` belongs 6 nM; to `O=C(c1ccc(Nc2ccc(F)cc2F)nc1)c1cc(Br)ccc1Cl`, 300 nM.
`CC(C)(N)CCc1ccc(Cl)c(C(=O)c2ccc(Nc3ccc(F)cc3F)nc2)c1` gave an IC50 of 160 nM.
On to `COc1ccc(CCC2(O)CCN(C)CC2)cc1C(=O)c1ccc(Nc2ccc(F)cc2F)cc1`, for which the IC50 came out at 51 nM.
`COc1cc2nc(C)[nH]c2cc1C(=O)c1ccc(Nc2ccc(F)cc2F)cc1` returned an IC50 of 5 nM.

The term IC50 denotes the concentration needed to halve the response being measured. A higher IC50 goes with a need for much substance.

The values above are taken from the Kinase Knowledgebase extract (Sharma et al. 2016).
